Counter-ions that a name gives are not always drawn.
How the values were obtained:
human thrombin = human thrombin (Homo sapiens, UniProt P00734); assay: Chromogenic thrombin inhibition assay (substrate S-2238); format: biochemical; settings: purified human thrombin, chromogenic substrate S-2238 83 μM, 37° C., mean of duplicates
[1] = target: T1, human coagulation factor Xa (Homo sapiens, UniProt P00742); assay: Chromogenic F Xa inhibition assay (substrate S-2765); format: biochemical; settings: purified human factor Xa, chromogenic substrate S-2765 62.5 μM, 37° C., mean of duplicates
T1 construct: purchased Enzyme Research Laboratories HFXa
T1 sequence (P00742 235-488 limits assumed): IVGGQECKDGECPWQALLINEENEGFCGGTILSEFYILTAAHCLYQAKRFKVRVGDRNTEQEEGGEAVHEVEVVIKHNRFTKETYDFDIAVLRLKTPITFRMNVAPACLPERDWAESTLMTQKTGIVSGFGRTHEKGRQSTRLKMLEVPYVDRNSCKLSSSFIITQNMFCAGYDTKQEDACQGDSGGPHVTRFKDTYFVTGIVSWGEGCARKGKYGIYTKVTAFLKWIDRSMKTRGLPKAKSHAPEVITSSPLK
T1 sequence (P00742 41-179 partner limits assumed): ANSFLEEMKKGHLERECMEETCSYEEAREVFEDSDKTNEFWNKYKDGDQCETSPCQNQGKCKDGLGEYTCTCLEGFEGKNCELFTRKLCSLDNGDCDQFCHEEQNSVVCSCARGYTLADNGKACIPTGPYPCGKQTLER

Compound | IC50 (human thrombin) | IC50 [1]
CCc1c(N2CCOCC2=O)cccc1S(=O)(=O)N[C@@H](CNC(=O)c1csc(Cl)c1)C(=O)N1CCOC[C@@H]1C [Example 2, 5-Chloro-thiophene-3-carboxylic acid [(S)-2-[2-ethyl-3-(3-oxo-morpholin-4-yl)-benzenesulfonylamino]-3-((S)-3-methyl-morpholin-4-yl)-3-oxo-propyl]-amide] | 250 nM | 9.8 nM
CCc1c(N2CCOCC2=O)cccc1S(=O)(=O)N[C@@H](CNC(=O)c1ccc(Cl)s1)C(=O)N1CCO[C@H](C)C1 [Example 3, 5-Chloro-thiophene-2-carboxylic acid [(S)-2-[2-ethyl-3-(3-oxo-morpholin-4-yl)-benzenesulfonylamino]-3-((R)-2-methyl-morpholin-4-yl)-3-oxo-propyl]-amide] | 55 nM | 1.48 nM
CCc1c(N2CCOCC2=O)cccc1S(=O)(=O)N[C@@H](CNC(=O)c1ccc(Cl)s1)C(=O)N1CCC[C@@H](OC)C1 [Example 4, 5-Chloro-thiophene-2-carboxylic acid [(S)-2-[2-ethyl-3-(3-oxo-morpholin-4-yl)-benzenesulfonylamino]-3-((R)-3-methoxy-piperidin-1-yl)-3-oxo-propyl]-amide] | 61 nM | 2.8 nM
O=C(NC[C@H](NS(=O)(=O)c1cccc(N2CCOCC2=O)c1Cl)C(=O)N1CCCCCC1)c1ccc(Cl)s1 [Example 5, 5-Chloro-thiophene-2-carboxylic acid {(S)-3-azepan-1-yl-2-[2-chloro-3-(3-oxo-morpholin-4-yl)-benzenesulfonylamino]-3-oxo-propyl}-amide] | 49 nM | 9.8 nM
COc1c(N2CCOCC2=O)cc(F)cc1S(=O)(=O)N[C@@H](CNC(=O)c1ccc(Cl)s1)C(=O)N1CCCCCC1 [Example 6, 5-Chloro-thiophene-2-carboxylic acid {(S)-3-azepan-1-yl-2-[5-fluoro-2-methoxy-3-(3-oxo-morpholin-4-yl)-benzenesulfonylamino]-3-oxo-propyl}-amide] | 5.64 nM | 0.88 nM
O=C(NC[C@H](NS(=O)(=O)c1cccc(N2CCCCC2=O)c1C(F)(F)F)C(=O)N1CCN(C2CC2)CC1)c1ccc(Cl)s1 [Example 7, 5-Chloro-thiophene-2-carboxylic acid {(S)-3-(4-cyclopropyl-piperazin-1-yl)-3-oxo-2-[3-(2-oxo-piperidin-1-yl)-2-trifluoromethyl-benzenesulfonylamino]propyl}amide trifluoroacetate] | 222 nM | 1.02 nM
O=C(NC[C@H](NS(=O)(=O)c1cccc(N2CCCCC2=O)c1OC(F)F)C(=O)N1CCN(C2CC2)CC1)c1ccc(Cl)s1 [Example 8, 5-Chloro-thiophene-2-carboxylic acid {(S)-3-(4-cyclopropyl-piperazin-1-yl)-2-[2-difluoromethoxy-3-(2-oxo-piperidin-1-yl)-benzenesulfonylamino]-3-oxo-propyl}-amide trifluoroacetate] | 10.4 nM | 0.98 nM
CCOC(=O)C1CCN(C(=O)[C@H](CNC(=O)c2ccc(Cl)s2)NS(=O)(=O)c2cccc(N3CCCCC3=O)c2OC(F)F)CC1 [Example 9, 1-{(S)-3-[(5-Chloro-thiophene-2-carbonyl)-amino]-2-[2-difluoromethoxy-3-(2-oxo-piperidin-1-yl)-benzenesulfonylamino]-propionyl}-piperidine-4-carboxylic acid ethyl ester] | 10.5 nM | 0.52 nM
Cc1noc(C2CCN(C(=O)[C@H](CNC(=O)c3ccc(Cl)s3)NS(=O)(=O)c3cccc(N4CCCCC4=O)c3OC(F)F)CC2)n1 [Example 11, 5-Chloro-thiophene-2-carboxylic acid {(S)-2-[2-difluoromethoxy-3-(2-oxo-piperidin-1-yl)-benzenesulfonylamino]-3-[4-(3-methyl-[1,2,4]oxadiazol-5-yl)-piperidin-1-yl]-3-oxo-propyl}amide] | 381 nM | 1.74 nM
CN1CCN(C(=O)[C@H](CNC(=O)c2ccc(Cl)s2)NS(=O)(=O)c2cc(F)cc(N3CCCC3)c2Cl)CC1 [Example 13, 5-Chloro-thiophene-2-carboxylic acid [(S)-2-(2-chloro-5-fluoro-3-pyrrolidin-1-yl-benzenesulfonylamino)-3-(4-methyl-piperazin-1-yl)-3-oxo-propyl]-amide trifluoro acetate] | 19 nM | 1.44 nM
O=C(NC[C@H](NS(=O)(=O)c1cccc(N2CCCC2=O)c1Cl)C(=O)N1CCNCC1)c1ccc(Cl)s1 [Example 15, 5-Chloro-thiophene-2-carboxylic acid {(S)-2-[2-chloro-3-(2-oxo-pyrrolidin-1-yl)-benzenesulfonylamino]-3-oxo-3-piperazin-1-yl-propyl}-amide] | 658 nM | 1.32 nM
COCCN1CCN(C(=O)[C@H](CNC(=O)c2ccc(Cl)s2)NS(=O)(=O)c2cc(F)cc(N3CCCC3=O)c2C)CC1 [Example 16, 5-Chloro-thiophene-2-carboxylic acid {(S)-2-[5-fluoro-2-methyl-3-(2-oxo-pyrrolidin-1-yl)-benzenesulfonylamino]-3-[4-(2-methoxy-ethyl)-piperazin-1-yl]-3-oxo-propyl}-amide trifluoro acetate] | 54 nM | 1.3 nM
CN1CCN(C(=O)[C@H](CNC(=O)c2ccc(Cl)s2)NS(=O)(=O)c2cccc(N3CCCC3=O)c2C(F)F)CC1 [Example 17, 5-Chloro-thiophene-2-carboxylic acid [(S)-2-[2-difluoromethyl-3-(2-oxo-pyrrolidin-1-yl)-benzenesulfonylamino]-3-(4-methyl-piperazin-1-yl)-3-oxo-propyl]-amide trifluoro acetate] | 28 nM | 1.81 nM
Cc1c(N2CCCC2=O)cccc1S(=O)(=O)N[C@@H](CNC(=O)c1ccc(Cl)s1)C(=O)N1CCc2sccc2C1 [Example 154, 5-Chloro-thiophene-2-carboxylic acid {(S)-3-(6,7-dihydro-4H-thieno[3,2-c]pyridin-5-yl)-2-[2-methyl-3-(2-oxo-pyrrolidin-1-yl)-benzenesulfonylamino]-3-oxo-propyl}-amide] | 3.48 nM | 1.92 nM
O=C(NC[C@H](NS(=O)(=O)c1cc(F)cc(N2CCCCC2=O)c1Cl)C(=O)N1CCN(CC(F)(F)F)CC1)c1ccc(Cl)s1 [Example 183, 5-Chloro-thiophene-2-carboxylic acid {(S)-2-[2-chloro-5-fluoro-3-(2-oxo-piperidin-1-yl)-benzenesulfonylamino]-3-oxo-3-[4-(2,2,2-trifluoro-ethyl)-piperazin-1-yl]-propyl}-amide] | 40 nM | 0.4 nM
Cc1c(N2CCCC2=O)cc(F)cc1S(=O)(=O)N[C@@H](CNC(=O)c1ccc(Cl)s1)C(=O)N1CCN(C)CC1 [Example 202, 5-Chloro-thiophene-2-carboxylic acid [(S)-2-[5-fluoro-2-methyl-3-(2-oxo-pyrrolidin-1-yl)-benzenesulfonylamino]-3-(4-methyl-piperazin-1-yl)-3-oxo-propyl]-amide] | 27 nM | 1.31 nM

Reference: patent US8378092B2, “Chlorothiophene-amides as inhibitors of coagulation factors Xa and thrombin” (Sanofi, priority 2008, dated 2013)
